According to the Kinase Knowledgebase extract (Sharma et al. 2016):

molecular target: CDK2 (UniProt P24941); assay: Enzyme Assay

IC50, 0.1 to 100 nM:
OC[C@H]1CCCC[C@H]1Nc1cc(NCc2cccnc2)n2ncc(Br)c2n1
Brc1cnn2c(NCc3cccnc3)cc(-c3ccccc3)nc12
OCC[C@@H]1CCCN1c1cc(NCc2cccnc2)n2ncc(Br)c2n1
CS(=O)(=O)N1CCCC(c2cc(NCc3cccnc3)n3ncc(Br)c3n2)C1 (configuration not stated)
CC(C)(O)[C@@H]1CCCN1c1cc(NCc2ccc[n+]([O-])c2)n2ncc(Br)c2n1
Brc1cnn2c(NCc3ccc4[nH]cnc4c3)cc(C3CCCCC3)nc12
NC(=O)N1CCCC(c2cc(NCc3cccnc3)n3ncc(Br)c3n2)C1 (configuration not stated)
Brc1cnn2c(NCc3ccc(-c4csnn4)cc3)cc(C3CCNCC3)nc12
COc1c(Cl)cc(CNc2cc(-c3ccccc3)nc3c(Br)cnn23)c[n+]1[O-]
CCc1cnn2c(NCc3ccc[n+]([O-])c3)cc(-c3ccccc3F)nc12
CC(C)(O)[C@@H]1CCCN1c1cc(NCc2cccnc2)n2ncc(Br)c2n1
Brc1cnn2c(NCc3ccc4[nH]cnc4c3)cc(C3CCNCC3)nc12
NC(=O)N1CCC(c2cc(NCc3cccnc3)n3ncc(Br)c3n2)CC1
CS(=O)(=O)N1CCC(c2cc(NCc3cccnc3)n3ncc(Br)c3n2)CC1
[O-][n+]1cccc(CNc2cc(C3CCCCC3)nc3c(Br)cnn23)c1
OC[C@H]1CCCC[C@H]1c1cc(NCc2cccnc2)n2ncc(Br)c2n1
CC(C)c1cc(NCc2ccc[n+]([O-])c2)n2ncc(Br)c2n1
[O-][n+]1cccc(CNc2cc(-c3ccccc3Cl)nc3c(Br)cnn23)c1
Cc1ccccc1-c1cc(NCc2ccc[n+]([O-])c2)n2ncc(Br)c2n1
CC1(C)[C@@H]2[C@@H](CO)N(c3cc(NCc4cccnc4)n4ncc(Br)c4n3)C[C@@H]21
CCc1cnn2c(NCc3ccc[n+]([O-])c3)cc(C3CCCCC3)nc12
Nc1ncc(CNc2cc(C3CCCNC3)nc3c(Br)cnn23)cn1 (configuration not stated)
CC(C)(O)[C@H]1CCCC[C@H]1c1cc(NCc2cccnc2)n2ncc(Br)c2n1
O=c1ccc(CNc2cc(C3CCCCC3)nc3c(Br)cnn23)c[nH]1
O=C(C1CC1)N1CCC(c2cc(NCc3cccnc3)n3ncc(Br)c3n2)CC1
Brc1cnn2c(NCc3cccnc3)cc(C3CCCNC3)nc12 (configuration not stated)
Brc1cnn2c(NCc3cccnc3)cc(C3CCOCC3)nc12
Cn1cnc2cc(CNc3cc(-c4ccccc4)nc4c(Br)cnn34)ccc21
CCc1cnn2c(NCc3ccc(OC)[n+]([O-])c3)cc(-c3ccccc3F)nc12
Brc1cnn2c(NCc3cccnc3)cc(C3CCCCC3)nc12
[O-][n+]1cccc(CNc2cc(-c3ccco3)nc3c(Br)cnn23)c1
CNC(=O)c1ccc(CNc2cc(-c3ccccc3F)nc3c(Br)cnn23)cc1
O=c1ccc(CNc2cc(-c3ccccc3)nc3c(Br)cnn23)c[nH]1
[O-][n+]1cccc(CNc2cc(N3CCC[C@H]3CO)nc3c(Br)cnn23)c1
[O-][n+]1cccc(CNc2cc(C3CCNCC3)nc3c(Br)cnn23)c1
Oc1cc(CNc2cc(C3CCCCC3)nc3c(Br)cnn23)ccn1
CCc1cnn2c(NCc3ccnc(O)c3)cc(-c3ccccc3)nc12
CC(=O)N1CCCC(c2cc(NCc3cccnc3)n3ncc(Br)c3n2)C1 (configuration not stated)
Fc1ccccc1-c1cc(NCc2ccc3[nH]cnc3c2)n2ncc(Br)c2n1
CCOc1ccc(CNc2cc(-c3ccccc3)nc3c(Br)cnn23)c[n+]1[O-]
[O-][n+]1cccc(CNc2cc(-c3ccc(Cl)cc3)nc3c(Br)cnn23)c1
CCc1cnn2c(NCc3cccnc3)cc(-c3ccccc3)nc12
CC(C)[C@H](CO)Nc1cc(NCc2ccc[n+]([O-])c2)n2ncc(Br)c2n1
[O-][n+]1cccc(CNc2cc(C3CCOCC3)nc3c(Br)cnn23)c1
Brc1cnn2c(NCc3cccnc3)cc(-c3ccco3)nc12
CC(C)(CO)Nc1cc(NCc2cccnc2)n2ncc(Br)c2n1
[O-][n+]1cccc(CNc2cc(-c3ccccc3)nc3c(Br)cnn23)c1
CCc1cnn2c(NCc3ccc[n+]([O-])c3)cc(-c3ccccc3)nc12
O=c1ccc(CNc2cc(-c3ccccc3F)nc3c(Br)cnn23)c[nH]1
OCC1CCCCN1c1cc(NCc2cccnc2)n2ncc(Br)c2n1 (configuration not stated)
[O-][n+]1cccc(CNc2cc(-c3cccs3)nc3c(Br)cnn23)c1
[O-][n+]1cc(CNc2cc(-c3ccccc3)nc3c(Br)cnn23)ccc1OCC(F)(F)F
Brc1cnn2c(NCc3cccnc3)cc(C3CCNCC3)nc12
OCCC1CCCCN1c1cc(NCc2cccnc2)n2ncc(Br)c2n1 (configuration not stated)
CC(C)[C@@H](CO)Nc1cc(NCc2ccc[n+]([O-])c2)n2ncc(Br)c2n1
CC(C)Oc1ccc(CNc2cc(-c3ccccc3F)nc3c(Br)cnn23)c[n+]1[O-]
CC(=O)N1CCC(c2cc(NCc3cccnc3)n3ncc(Br)c3n2)CC1
OCC1(Nc2cc(NCc3cccnc3)n3ncc(Br)c3n2)CCCC1
[O-][n+]1cccc(CNc2cc(-c3ccccc3F)nc3c(Br)cnn23)c1
N[C@H]1CC[C@H](Nc2cc(NCc3cccnc3)n3ncc(Br)c3n2)CC1
COc1ccc(CNc2cc(-c3ccccc3F)nc3c(Br)cnn23)c[n+]1[O-]
O=c1cc(CNc2cc(-c3ccccc3)nc3c(Br)cnn23)cc[nH]1
